Paper PMC12396409, “Screening and hit evaluation of a microbial metabolite library against the pathogenic Plasmodium falciparum and Toxoplasma gondii parasites” (International Journal for Parasitology: Drugs and Drug …, 2025)
Structures can show the parent of a compound that is named as a salt. Where two headings read alike, the source gives them in different places.

Key:
[1] = system: P. falciparum 3D7 parasites; assay: P. falciparum growth inhibition assay, 2-cycle (120 h treatment), delayed-death screen and dose-response; type: cell-based, Plasmodium falciparum; settings: for 3) Fold change (72 h/120 h): growth at 72 h / growth at 120 h
[2] = system: T. gondii RH strain (RH-Tub-eYFP) tachyzoites; assay: microbe, parasite or virus in culture; type: cell-based, Toxoplasma gondii; settings: for Mean / Replicate 1 / Replicate 2: 2 μg/mL; for Mean: mean of both replicates, growth (% of control); for Replicate 1 / Replicate 2: values are growth (% of control); for percent parasite growth at 2 µg/mL: Toxoplasma gondii
[3] = system: P. falciparum 3D7 parasites; assay: P. falciparum growth inhibition assay, 1-cycle (72 h treatment), SYBR DNA staining (library screen at 2 μg/mL and dose-response); type: cell-based, Plasmodium falciparum
[4] = active against the parasite at 2 μg/mL, no anti-tumour (NS-1) or cytotoxic (fibroblast) activity at 5 μg/mL

Structure (SMILES): CC(C)[C@@H]1NC(=O)[C@@H]2CCCN2C1=O [Cyclo(L-Pro-L-Val)]
- Pf_120h_%Growth_Rep1 ([1]; P. falciparum, 120 h, screen at 2 μg/mL, replicate 1): 101.90%
- Pf_120h_%Growth_Rep2 ([1]; P. falciparum, 120 h, screen at 2 μg/mL, replicate 2): 92.75%
- Tg_72h_%Growth_Rep1 ([2]; T. gondii, 72 h, screen at 2 μg/mL, replicate 1): 147.92%
- Tg_72h_%Growth_Rep2 ([2]; T. gondii, 72 h, screen at 2 μg/mL, replicate 2): 100.59%
- Pf_72h_%Growth_Rep1 ([3]; P. falciparum, 72 h, screen at 2 μg/mL, replicate 1): 85.07%
- Pf_72h_%Growth_Rep2 ([3]; P. falciparum, 72 h, screen at 2 μg/mL, replicate 2): 82.22%

Structure (SMILES): CN[C@@H]1C[C@H]2O[C@@](C)([C@@H]1OC)n1c3ccccc3c3c4c(c5c6ccccc6n2c5c31)C(=O)NC4=O [Oxostaurosporine, 7-]
- Mean ([2]; T. gondii, 72 h): 37.90
- Replicate 1 ([2]; T. gondii, 72 h): 57.26
- Replicate 2 ([2]; T. gondii, 72 h): 18.54

Structure (SMILES): CCC[C@@H]1C[C@@H](C(=O)N[C@@H]([C@H]2O[C@H](SC)[C@H](O)[C@@H](O)[C@H]2O)[C@H](C)Cl)N(C)C1 [Clindamycin hydrochloride, reference compound]
- percent parasite growth at 2 µg/mL ([2]; 72 h, read-out: Tg_72h_%Growth_Rep1): 21.7%
- percent parasite growth at 2 µg/mL ([2]; 72 h, read-out: Tg_72h_%Growth_Rep2): 28.6%

Structure (SMILES): CN(C)c1ccc(O)c2c1C[C@H]1C[C@H]3[C@H](N(C)C)C(O)=C(C(N)=O)C(=O)[C@@]3(O)C(O)=C1C2=O [Minocycline HCl, reference compound]
- Mean ([2]; T. gondii, 72 h): 21.66
- Replicate 1 ([2]; T. gondii, 72 h): 5.81
- Replicate 2 ([2]; T. gondii, 72 h): 37.51

Structure (SMILES): CC(=O)O[C@@H]1[C@@H]2O[C@H]2[C@@](C)(O)C(=O)[C@@H](C)C/C=C/[C@H]2[C@H](O)C(C)=C(C)[C@H]3[C@H](Cc4ccccc4)NC(=O)[C@@]123 [19,20-epoxycytochalasin C]
- selectivity for T. gondii in the screens [2, 4]: active selectively against P. falciparum and T. gondii
- selectivity for P. falciparum in the screens [3, 4]: active selectively against P. falciparum and T. gondii

Structure (SMILES): COC(=O)c1ccc(CCCCCCCCCCc2ccc(C(=O)OC)nc2)cn1 [Penicolinate A]
- Mean ([2]; T. gondii, 72 h): 44.53
- Replicate 1 ([2]; T. gondii, 72 h): 16.04
- Replicate 2 ([2]; T. gondii, 72 h): 73.01

Structure (SMILES): CN1CC[C@]2(c3cccc4c3N[C@H]3N(C)CC[C@@]43[C@]34CCN(C)[C@H]3Nc3ccccc34)c3ccccc3N[C@H]12 [Hodgkinsine B]
- Mean ([2]; T. gondii, 72 h): 34.28
- Replicate 1 ([2]; T. gondii, 72 h): 8.86
- Replicate 2 ([2]; T. gondii, 72 h): 59.70

Structure (SMILES): C=C[C@]1(C)C[C@@H](O)[C@]2(C)[C@H](C)CC[C@]3(CCC(=O)[C@H]32)[C@@H](C)[C@@H]1O [Mutilin]
- Screen (T. gondii) ([2]; library screen at 2 μg/mL, RH strain, 72 h): I, I
- Screen (P. falciparum) ([3]; library screen at 2 μg/mL, 3D7, 72 h, DD from the 120 h timepoint): I, I

Structure (SMILES): CC(C)=CCC[C@H](C)[C@H]1CC[C@]2(C)C[C@H]3[C@H](C(=O)C[C@@]3(C)O)/C(C=O)=C\C[C@@H]12 [Ophiobolin C]
- Mean ([2]; T. gondii, 72 h): 48.72
- Replicate 1 ([2]; T. gondii, 72 h): 7.63
- Replicate 2 ([2]; T. gondii, 72 h): 89.80

Structure (SMILES): CC(=O)O[C@H]1C[C@@]2(C)[C@@H](CC[C@H]3[C@@]4(C)C=CC(=O)[C@@H](C)[C@@H]4[C@H](OC(C)=O)C(=O)[C@@]32C)/C1=C(\CCC=C(C)C)C(=O)O [Helvolic acid]
- 3) Fold change (72 h/120 h) ([1]; P. falciparum, 2 μg/mL): 7.0
- activity at 2 µg/mL ([1]; Plasmodium falciparum, 3D7; P. falciparum, 2 μg/mL, 120 h; read-out: 2) Growth (%) at 120 h): 8.14%
- activity at 2 µg/mL ([3]; Plasmodium falciparum, 3D7; P. falciparum, 2 μg/mL, 72 h; read-out: 1) Growth (%) at 72 h): 56.7%

Structure (SMILES): O=C(O)c1cccc(C(=O)O)n1 [Dipicolinic acid]
- percent parasite growth at 2 µg/mL ([2]; 72 h, library screen at 2 μg/mL, 72 h, % growth, replicate 1, read-out: Tg_72h_%Growth_Rep1): 112%
- percent parasite growth at 2 µg/mL ([2]; 72 h, library screen at 2 μg/mL, 72 h, % growth, replicate 2, read-out: Tg_72h_%Growth_Rep2): 89.5%

Structure (SMILES): CC1=C[C@H]2C(=O)O[C@H]3C[C@@H](C/C=C(\C)C[C@@H](C)/C=C/C=C4\CO[C@H]([C@@H]1O)[C@@]42O)O[C@@]1(CC[C@H](C)[C@@H](C)O1)C3 [Milbemycin A3]
- 2) Growth (%) at 120 h ([1]; P. falciparum, 2 μg/mL, 120 h): 17.63%
- 3) Fold change (72 h/120 h) ([1]; P. falciparum, 2 μg/mL): 1.4
- 1) Growth (%) at 72 h ([3]; P. falciparum, 2 μg/mL, 72 h): 24.47%
- Mean ([3]; P. falciparum, 72 h, 2 μg/mL, mean of both replicates, growth (% of control)): 24.47
